Test results published in ChEMBL document CHEMBL1921690, “Synthesis and evaluation of pyridone-phenoxypropyl-R-2-methylpyrrolidine analogues as histamine H3 receptor antagonists” (Bioorg Med Chem Lett, 2011).

Key:
Histamine H3 receptor [1] = biological target: T1, Histamine H3 receptor (Homo sapiens, UniProt Q9Y5N1); experiment: Inhibition of basal activity of human histamine H3 receptor expressed in CHO cells assessed as inhibition of RAHM-induced [35S]GTPgammaS binding after 4 hrs by beta liquid scintillation counting; format: functional, cell-based
[2] = Half life in human liver microsomes; format: ADME, Microsome
Histamine H2 receptor = Histamine H2 receptor (Homo sapiens, UniProt P25021); experiment: Binding affinity to human histamine H2 receptor
Cytochrome P450 3A4 = Cytochrome P450 3A4 (Homo sapiens, UniProt P08684); experiment: Inhibition of CYP3A4; format: ADME
Cytochrome P450 2D6 = Cytochrome P450 2D6 (Homo sapiens, UniProt P10635); experiment: Inhibition of CYP2D6; format: ADME
[3] = Volume of distribution in rat at 1 mg/kg, iv; format: ADME, organism-based; design: dose 1 mg/kg, route intravenous; settings: in vivo
[4] = Clearance in rat at 1 mg/kg, iv; format: ADME, organism-based; design: dose 1 mg/kg, route intravenous; settings: in vivo
Histamine H3 receptor [5] = biological target: Histamine H3 receptor (Rattus norvegicus, UniProt Q9QYN8); experiment: Displacement of [3H]NAMH from rat histamine H3 receptor expressed in CHO cells; format: cell-based
Rattus norvegicus [6] = experiment: Inhibition of RAMH-induced dipsogenia in ip dosed rat dipsogenia model; format: functional
[7] = Ratio of drug level in brain to plasma in rat at 5 mg/kg, po; format: ADME, organism-based; design: dose 5 mg/kg, route oral; settings: read-out: BPR
Rattus norvegicus [8] = experiment: Induction of wake promoting activity in Sprague-Dawley rat EEG/EMG model assessed as time for recovered sleep latency per hrat 30 mg/kg, ip measured after 6 to 22 hrs post dosing; format: functional; settings: route intraperitoneal
Histamine H1 receptor = Histamine H1 receptor (Homo sapiens, UniProt P35367); experiment: Binding affinity to human histamine H1 receptor
[9] = Half life in rat liver microsomes; format: ADME, Microsome
Cytochrome P450 2C9 = Cytochrome P450 2C9 (Homo sapiens, UniProt P11712); experiment: Inhibition of CYP2C9; format: ADME
[10] = Drug level in rat brain at 10 mg/kg, ip after 1 hr; format: ADME, organism-based; design: dose 10 mg/kg, route intraperitoneal; settings: read-out: Drug uptake
Cytochrome P450 1A2 = biological target: T2, Cytochrome P450 1A2 (Homo sapiens, UniProt P05177); experiment: Inhibition of CYP1A2; format: ADME
T2 sequence (P05177 whole entry): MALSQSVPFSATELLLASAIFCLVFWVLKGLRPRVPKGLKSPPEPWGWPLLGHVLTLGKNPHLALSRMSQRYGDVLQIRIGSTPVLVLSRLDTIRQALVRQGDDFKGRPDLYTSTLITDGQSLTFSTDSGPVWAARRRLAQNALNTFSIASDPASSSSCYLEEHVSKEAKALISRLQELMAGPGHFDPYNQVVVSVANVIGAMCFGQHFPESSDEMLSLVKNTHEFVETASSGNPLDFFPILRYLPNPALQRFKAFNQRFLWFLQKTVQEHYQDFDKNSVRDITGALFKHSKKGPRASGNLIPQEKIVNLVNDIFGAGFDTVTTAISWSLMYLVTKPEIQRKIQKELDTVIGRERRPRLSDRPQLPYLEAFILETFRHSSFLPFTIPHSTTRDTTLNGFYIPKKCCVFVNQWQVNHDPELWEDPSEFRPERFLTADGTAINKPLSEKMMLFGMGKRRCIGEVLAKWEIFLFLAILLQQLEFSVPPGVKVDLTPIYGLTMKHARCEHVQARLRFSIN

[11] = Oral bioavailability in rat at 5 mg/kg; format: ADME, organism-based; settings: in vivo
Cytochrome P450 2C19 = Cytochrome P450 2C19 (Homo sapiens, UniProt P33261); experiment: Inhibition of CYP2C19; format: ADME
Histamine H3 receptor [12] = biological target: T1, Histamine H3 receptor; experiment: Displacement of [3H]NAMH from human histamine H3 receptor expressed in CHO cells; format: cell-based
Histamine H4 receptor = Histamine H4 receptor (Homo sapiens, UniProt Q9H3N8); experiment: Binding affinity to human histamine H4 receptor
Rattus norvegicus [13] = experiment: Induction of wake promoting activity in Sprague-Dawley rat EEG/EMG model assessed as surplus wake time at 30 mg/kg, ip measured after 22 hrs post dosing; format: functional; settings: route intraperitoneal
[14] = Half life in mouse liver microsomes; format: ADME, Microsome
[15] = Aqueous solubility of compound at pH 7.4; format: physicochemical
Rattus norvegicus [16] = experiment: Induction of wake promoting activity in Sprague-Dawley rat EEG/EMG model assessed as retained wake latency at 30 mg/kg, ip measured after 22 hrs post dosing; format: functional; settings: route intraperitoneal
[17] = Half life in rat at 1 mg/kg, iv; format: ADME, organism-based; design: dose 1 mg/kg, route intravenous; settings: in vivo
Rattus norvegicus [18] = experiment: Induction of wake promoting activity in Sprague-Dawley rat EEG/EMG model assessed as time to maximal cumulative wake surplus at 30 mg/kg, ip measured after 6 hrs post dosing; format: functional; settings: route intraperitoneal
Rattus norvegicus [19] = experiment: Induction of wake promoting activity in Sprague-Dawley rat EEG/EMG model assessed as AUC of cumulative wake time at 30 mg/kg, ip measured after 4 hrs post dosing (reference value: 114 +/- 9 mins); format: functional; settings: route intraperitoneal
Rattus norvegicus [20] = experiment: Induction of wake promoting activity in Sprague-Dawley rat EEG/EMG model assessed as maximum cumulative wake surplus time at 10 mg/kg, ip measured after 22 hrs post dosing; format: functional; settings: route intraperitoneal
Rattus norvegicus [21] = experiment: Induction of wake promoting activity in Sprague-Dawley rat EEG/EMG model assessed as AUC of cumulative wake time at 10 mg/kg, ip measured after 4 hrs post dosing (reference value: 114 +/- 9 mins); format: functional; settings: route intraperitoneal
[22] = Cmax in rat at 5 mg/kg, po; format: ADME, organism-based; design: dose 5 mg/kg, route oral; settings: in vivo
[23] = Half life in monkey liver microsomes; format: ADME, Macaca mulatta, Microsome; settings: rhesus monkey
Histamine H3 receptor [24] = biological target: T1, Histamine H3 receptor; experiment: Antagonist activity at human histamine H3 receptor expressed in CHO cells assessed as inhibition of RAHM-induced [35S]GTPgammaS binding after 4 hrs by beta liquid scintillation counting; format: functional, cell-based
Rattus norvegicus [25] = experiment: Induction of wake promoting activity in Sprague-Dawley rat EEG/EMG model assessed as fold increase in wake latency at 30 mg/kg, ip measured after 4 hrs post dosing relative to control; format: functional; settings: route intraperitoneal
[26] = AUC (0 to t) in rat at 5 mg/kg, po; format: ADME, organism-based; design: dose 5 mg/kg, route oral; settings: plasma
[27] = Ratio of drug level in brain to plasma in rat at 10 mg/kg, ip after 1 hr; format: ADME, organism-based; design: dose 10 mg/kg, route intraperitoneal; settings: read-out: BPR
Rattus norvegicus [28] = experiment: Induction of wake promoting activity in Sprague-Dawley rat EEG/EMG model assessed as maximum cumulative wake surplus time at 10 mg/kg, ip measured after 3 hrs post dosing; format: functional; settings: route intraperitoneal
Rattus norvegicus [29] = experiment: Induction of wake promoting activity in ip dosed Sprague-Dawley rat EEG/EMG model assessed as increase in AUC of wake latency after 4 hrs post dosing; format: functional, organism-based
Rattus norvegicus [30] = experiment: Induction of wake promoting activity in Sprague-Dawley rat EEG/EMG model assessed as increase of wake latency at 30 mg/kg, ip measured after 4 hrs post dosing; format: functional; settings: route intraperitoneal

T1 sequence (Q9Y5N1 whole entry): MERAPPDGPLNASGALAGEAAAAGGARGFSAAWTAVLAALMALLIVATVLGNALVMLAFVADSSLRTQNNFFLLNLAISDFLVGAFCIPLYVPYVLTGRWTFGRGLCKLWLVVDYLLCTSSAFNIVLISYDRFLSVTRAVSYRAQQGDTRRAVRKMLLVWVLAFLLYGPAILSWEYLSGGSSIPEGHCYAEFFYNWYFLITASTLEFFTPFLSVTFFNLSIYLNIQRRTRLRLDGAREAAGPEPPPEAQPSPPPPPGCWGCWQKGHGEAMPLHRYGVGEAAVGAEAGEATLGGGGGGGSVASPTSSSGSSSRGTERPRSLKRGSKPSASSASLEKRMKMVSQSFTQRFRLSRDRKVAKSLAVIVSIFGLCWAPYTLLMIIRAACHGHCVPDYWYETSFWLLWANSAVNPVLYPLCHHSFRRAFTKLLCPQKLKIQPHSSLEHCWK
Histamine H3 receptor (Rattus norvegicus, UniProt Q9QYN8), sequence (Q9QYN8 whole entry): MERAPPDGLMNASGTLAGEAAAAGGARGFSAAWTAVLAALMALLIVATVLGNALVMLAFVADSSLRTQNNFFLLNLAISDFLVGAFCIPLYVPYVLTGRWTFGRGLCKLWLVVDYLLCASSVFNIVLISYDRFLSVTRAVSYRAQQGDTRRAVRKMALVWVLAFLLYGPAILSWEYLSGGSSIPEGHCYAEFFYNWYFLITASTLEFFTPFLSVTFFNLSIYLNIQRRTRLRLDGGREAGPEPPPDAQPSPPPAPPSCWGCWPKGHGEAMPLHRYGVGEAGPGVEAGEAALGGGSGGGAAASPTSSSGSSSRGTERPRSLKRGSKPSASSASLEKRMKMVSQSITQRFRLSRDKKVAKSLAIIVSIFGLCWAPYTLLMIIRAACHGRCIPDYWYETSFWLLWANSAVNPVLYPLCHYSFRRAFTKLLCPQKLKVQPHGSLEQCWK
Histamine H4 receptor, sequence (Q9H3N8 whole entry): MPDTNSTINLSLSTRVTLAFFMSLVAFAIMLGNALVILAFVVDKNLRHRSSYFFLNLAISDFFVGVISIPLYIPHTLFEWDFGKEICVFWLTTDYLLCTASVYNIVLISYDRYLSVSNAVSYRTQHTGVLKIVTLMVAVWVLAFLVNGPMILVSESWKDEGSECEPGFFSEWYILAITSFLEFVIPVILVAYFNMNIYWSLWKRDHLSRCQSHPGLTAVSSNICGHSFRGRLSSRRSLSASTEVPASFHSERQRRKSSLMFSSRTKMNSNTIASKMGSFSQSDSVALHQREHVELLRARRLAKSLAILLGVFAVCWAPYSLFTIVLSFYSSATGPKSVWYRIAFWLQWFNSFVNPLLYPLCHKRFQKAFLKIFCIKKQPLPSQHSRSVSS
Histamine H2 receptor, sequence (P25021 whole entry): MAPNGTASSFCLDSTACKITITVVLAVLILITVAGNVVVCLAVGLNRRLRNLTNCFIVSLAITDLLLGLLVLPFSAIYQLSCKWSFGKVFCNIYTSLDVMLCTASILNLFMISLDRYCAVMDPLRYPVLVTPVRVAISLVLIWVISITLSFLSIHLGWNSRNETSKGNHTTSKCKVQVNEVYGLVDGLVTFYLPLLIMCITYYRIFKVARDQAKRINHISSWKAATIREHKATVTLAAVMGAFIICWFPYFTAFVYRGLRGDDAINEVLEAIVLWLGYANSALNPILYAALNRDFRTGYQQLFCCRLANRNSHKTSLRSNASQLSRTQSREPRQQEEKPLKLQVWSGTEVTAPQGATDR
Cytochrome P450 2C9, sequence (P11712 whole entry): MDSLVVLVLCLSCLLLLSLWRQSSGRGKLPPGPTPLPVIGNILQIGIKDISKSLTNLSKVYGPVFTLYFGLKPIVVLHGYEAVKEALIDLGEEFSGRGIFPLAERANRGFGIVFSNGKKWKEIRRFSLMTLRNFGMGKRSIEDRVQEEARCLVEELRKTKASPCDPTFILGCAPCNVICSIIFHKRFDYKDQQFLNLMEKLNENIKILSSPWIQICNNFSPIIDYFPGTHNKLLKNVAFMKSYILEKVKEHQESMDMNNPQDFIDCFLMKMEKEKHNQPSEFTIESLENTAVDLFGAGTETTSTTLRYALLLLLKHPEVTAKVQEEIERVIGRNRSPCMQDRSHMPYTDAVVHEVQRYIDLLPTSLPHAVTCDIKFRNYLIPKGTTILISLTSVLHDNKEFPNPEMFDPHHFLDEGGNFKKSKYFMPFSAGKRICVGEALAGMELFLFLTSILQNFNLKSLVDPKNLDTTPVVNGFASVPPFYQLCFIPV
Histamine H1 receptor, sequence (P35367 whole entry): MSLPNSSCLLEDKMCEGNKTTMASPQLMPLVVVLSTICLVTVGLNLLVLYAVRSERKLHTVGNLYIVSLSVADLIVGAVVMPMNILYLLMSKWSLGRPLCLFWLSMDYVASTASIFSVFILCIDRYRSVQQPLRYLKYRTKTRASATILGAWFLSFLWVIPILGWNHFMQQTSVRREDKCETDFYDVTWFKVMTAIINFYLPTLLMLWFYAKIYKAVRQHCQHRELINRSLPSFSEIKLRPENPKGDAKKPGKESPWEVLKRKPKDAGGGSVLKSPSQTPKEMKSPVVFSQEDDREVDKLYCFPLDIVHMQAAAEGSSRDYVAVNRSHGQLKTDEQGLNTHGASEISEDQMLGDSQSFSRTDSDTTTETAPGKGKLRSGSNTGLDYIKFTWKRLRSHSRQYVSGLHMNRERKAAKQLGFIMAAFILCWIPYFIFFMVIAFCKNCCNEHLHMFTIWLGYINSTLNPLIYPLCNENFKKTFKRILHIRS
Cytochrome P450 3A4, sequence (P08684 whole entry): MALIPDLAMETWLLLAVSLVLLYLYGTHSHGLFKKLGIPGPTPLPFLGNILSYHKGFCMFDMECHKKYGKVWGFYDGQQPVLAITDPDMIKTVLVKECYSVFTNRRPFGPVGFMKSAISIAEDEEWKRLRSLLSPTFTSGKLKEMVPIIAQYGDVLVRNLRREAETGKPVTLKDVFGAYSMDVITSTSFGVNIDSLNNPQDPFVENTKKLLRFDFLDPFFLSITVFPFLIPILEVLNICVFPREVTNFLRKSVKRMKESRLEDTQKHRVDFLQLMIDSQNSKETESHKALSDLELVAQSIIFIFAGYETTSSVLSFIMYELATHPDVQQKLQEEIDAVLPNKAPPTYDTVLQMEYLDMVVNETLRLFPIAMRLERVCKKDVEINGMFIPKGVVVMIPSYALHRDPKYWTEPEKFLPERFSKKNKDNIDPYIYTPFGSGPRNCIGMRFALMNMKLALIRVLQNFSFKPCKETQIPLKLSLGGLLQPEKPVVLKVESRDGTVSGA
Cytochrome P450 2D6, sequence (P10635 whole entry): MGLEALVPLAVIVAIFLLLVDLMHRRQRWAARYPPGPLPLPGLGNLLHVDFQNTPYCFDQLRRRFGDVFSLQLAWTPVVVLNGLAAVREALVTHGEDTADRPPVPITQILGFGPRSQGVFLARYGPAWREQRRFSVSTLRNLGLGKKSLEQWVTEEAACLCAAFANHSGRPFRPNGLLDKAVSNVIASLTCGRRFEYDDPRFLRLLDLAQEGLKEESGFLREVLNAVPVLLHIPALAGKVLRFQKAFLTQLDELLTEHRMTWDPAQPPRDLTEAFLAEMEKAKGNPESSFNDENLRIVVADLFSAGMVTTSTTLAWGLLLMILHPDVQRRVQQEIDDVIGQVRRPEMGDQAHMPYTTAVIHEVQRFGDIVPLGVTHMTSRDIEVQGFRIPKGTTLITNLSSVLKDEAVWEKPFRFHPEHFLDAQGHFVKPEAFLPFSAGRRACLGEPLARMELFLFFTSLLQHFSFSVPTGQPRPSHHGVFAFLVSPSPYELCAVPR
Cytochrome P450 2C19, sequence (P33261 whole entry): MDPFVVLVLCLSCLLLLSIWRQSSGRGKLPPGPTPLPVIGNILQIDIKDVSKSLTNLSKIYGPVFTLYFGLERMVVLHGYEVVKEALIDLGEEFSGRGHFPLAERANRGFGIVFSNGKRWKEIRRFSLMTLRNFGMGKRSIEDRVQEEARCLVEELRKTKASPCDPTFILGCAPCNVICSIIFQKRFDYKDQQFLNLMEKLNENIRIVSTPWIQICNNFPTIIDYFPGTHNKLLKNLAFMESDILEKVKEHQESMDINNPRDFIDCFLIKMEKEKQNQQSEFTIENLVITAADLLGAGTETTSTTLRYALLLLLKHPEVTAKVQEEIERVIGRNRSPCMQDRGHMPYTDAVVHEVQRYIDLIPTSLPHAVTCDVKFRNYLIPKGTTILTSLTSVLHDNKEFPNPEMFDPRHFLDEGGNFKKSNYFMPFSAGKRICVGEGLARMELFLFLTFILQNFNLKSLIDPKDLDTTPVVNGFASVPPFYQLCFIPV

## C[C@@H]1CCCN1CCCOc1ccc(-c2ccc(=O)n(C)c2)cc1
Histamine H3 receptor [1]
  EC50: 0.7 nM
[2]
  half-life: > 40 min
Histamine H2 receptor
  Ki: > 10000 nM
Cytochrome P450 3A4
  IC50: > 30000 nM
Cytochrome P450 2D6
  IC50: > 30000 nM
[3]
  Vd: 1.4 L/kg
[4]
  clearance: 11 mL/min/kg
Histamine H3 receptor [5]
  Ki: 8.5 nM
Rattus norvegicus [6]
  ED50: 0.03 mg/kg
  inhibition: Dose-dependent effect
[7]
  Kp: 1.7
Rattus norvegicus [8]
  Time: 6.3 min
Histamine H1 receptor
  Ki: > 10000 nM
[9]
  half-life: > 40 min
Cytochrome P450 2C9
  IC50: > 30000 nM
[10]
  concentration at 1 h: 2900 nM
Cytochrome P450 1A2
  IC50: > 30000 nM
[11]
  bioavailability: 11%
Cytochrome P450 2C19
  IC50: > 30000 nM
Histamine H3 receptor [12]
  Ki: 0.7 nM
Histamine H4 receptor
  Ki: > 10000 nM
Rattus norvegicus [13]
  Time: 51 min
[14]
  half-life: > 40 min
[15]
  solubility: > 300 µg/mL
Rattus norvegicus [16]
  Activity: 35%
[17]
  half-life: 84 min
Rattus norvegicus [18]
  Time: 146 min
Rattus norvegicus [19]
  Time: 227 min
Rattus norvegicus [20]
  Time: 33 min
Rattus norvegicus [21]
  Time: 160 min
[22]
  Cmax: 190 ng/mL
[23]
  half-life: > 40 min
Histamine H3 receptor [24]
  Kb: 0.2 nM
Rattus norvegicus [25]
  fold change (FC): 2
[26]
  AUC(0-t): 867 ng·h/mL
[27]
  Kp at 1 h: 1.9
Rattus norvegicus [28]
  Time: 53 min
Rattus norvegicus [29]
  Activity: Dose-dependent effect
Rattus norvegicus [30]
  Activity: 95%

## C[C@@H]1CCCN1CCCOc1ccc(-c2ccn(C)c(=O)c2)cc1
Histamine H3 receptor [5]
  Ki: 12 nM
Histamine H3 receptor [12]
  Ki: 3.2 nM

## C[C@@H]1CCCN1CCCOc1ccc(-c2cn(C)c(=O)c3ccccc23)cc1
[4]
  clearance: 42 mL/min/kg
Histamine H3 receptor [5]
  Ki: 2.4 nM
[11]
  bioavailability: 8%
Histamine H3 receptor [12]
  Ki: 0.9 nM

## C[C@@H]1CCCN1CCCOc1ccc(-c2ccc(=O)[nH]c2)cc1
[4]
  clearance: 96 mL/min/kg
Histamine H3 receptor [5]
  Ki: 9 nM
[11]
  bioavailability: 0%
Histamine H3 receptor [12]
  Ki: 7.7 nM

## C[C@@H]1CCCN1CCCOc1ccc(-c2cc(-c3ccccc3)c(=O)n(C)c2)cc1
Histamine H3 receptor [5]
  Ki: 7.9 nM
Histamine H3 receptor [12]
  Ki: 3.5 nM

## C[C@@H]1CCCN1CCCOc1ccc(-c2cccc(=O)n2C)cc1
Histamine H3 receptor [5]
  Ki: 21 nM
Histamine H3 receptor [12]
  Ki: 4.9 nM

## C[C@@H]1CCCN1CCCOc1ccc(-c2cc(C#N)c(=O)n(C)c2)cc1
Histamine H3 receptor [5]
  Ki: 3 nM
Histamine H3 receptor [12]
  Ki: 3.4 nM

## C[C@@H]1CCCN1CCCOc1ccc(-c2ccc(=O)n(Cc3ccccc3)c2)cc1
[4]
  clearance: 171 mL/min/kg
Histamine H3 receptor [5]
  Ki: 10 nM
[11]
  bioavailability: 0%
Histamine H3 receptor [12]
  Ki: 2 nM

## C[C@@H]1CCCN1CCCOc1ccc(-c2ccc(=O)n(-c3ccccc3)c2)cc1
[4]
  clearance: 138 mL/min/kg
Histamine H3 receptor [5]
  Ki: 19 nM
[11]
  bioavailability: 17%
Histamine H3 receptor [12]
  Ki: 1.8 nM

## C[C@@H]1CCCN1CCCOc1cccc(-c2ccc(=O)n(C)c2)c1
Histamine H3 receptor [5]
  Ki: > 500 nM
Histamine H3 receptor [12]
  Ki: 112 nM

## C[C@@H]1CCCN1CCCOc1ccc(-c2cccn(C)c2=O)cc1
Histamine H3 receptor [5]
  Ki: 144 nM
Histamine H3 receptor [12]
  Ki: 18 nM

## C[C@@H]1CCCN1CCCOc1ccc(-c2ccc(=O)n(-c3ccc(F)cc3)c2)cc1
Histamine H3 receptor [5]
  Ki: 9.6 nM
Histamine H3 receptor [12]
  Ki: 4.7 nM
